# Assay results as given in patent publication US9695155B2, “Herbicidal substituted pyrimidinyloxy benzene compounds” (E. I. DU PONT DE NEMOURS AND COMPANY, priority 2013, dated 2017).
# How the values were obtained:
# velvetleaf [1] = experiment: Test A postemergence; format: in vivo, Abutilon theophrasti; conditions: 0 to 100 scale where 0 is no effect and 100 is complete control
# Method in brief: (§1)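 Compounds in non-phytotoxic solvent with surfactant applied as soil spray preemergence, or postemergence to plants 2-10 cm at one- to two-leaf stage, in loam/sand. After approximately 10 days in greenhouse, injury rated visually versus untreated controls, 0 (no effect) to 100 (complete control).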
# chickweed = experiment: Test C postemergence; format: in vivo, Stellaria media; conditions: for Plant response rating, Chickweed: Postemergence
# Method in brief: (§2)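 Rated visually on 0–100 (100 = complete control) after 13–15 days under glass. Treatments went onto freshly seeded loam/sand soil or onto emerged plants at the 1- to 4-leaf stage, using a surfactant-containing solvent formulation.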
# morningglory [2] = experiment: Test A postemergence; format: in vivo, Ipomoea spp.; conditions: 0 to 100 scale where 0 is no effect and 100 is complete control
# Method in brief: as §1
# velvetleaf [3] = experiment: Test C preemergence; format: in vivo, Abutilon theophrasti; conditions: for Velvetleaf plant response rating: preemergence; for Plant response rating, Velvetleaf: Preemergence, 31 g ai/ha, scale 0 to 100, 0 no effect, 100 complete control
# Method in brief: as §2
# barnyardgrass [4] = experiment: Test A postemergence; format: in vivo, Echinochloa crus-galli
# Method in brief: as §1
# corn = experiment: Test A postemergence; format: in vivo, Zea mays
# Method in brief: as §1
# large (Lg) crabgrass = experiment: Test A postemergence; format: in vivo, Digitaria sanguinalis
# Method in brief: as §1
# galium = experiment: Test C postemergence; format: in vivo, Galium aparine; conditions: for Plant response rating, Galium: Postemergence
# Method in brief: as §2
# morningglory [5] = experiment: Test C postemergence; format: in vivo, Ipomoea coccinea; conditions: for Plant response rating (0 to 100), Morningglory: postemergence; for Plant response rating, Morningglory: Postemergence, scale 0 to 100 (0 no effect, 100 complete control)
# Method in brief: as §2
# Heteranthera limosa = experiment: Test B flooded paddy test; format: in vivo; conditions: Flood, 250 g ai/ha; 0 to 100 scale where 0 is no effect and 100 is complete control
# Method in brief: (§3)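 Post-emergence paddy-water application at the 2-leaf stage, with 3 cm flood kept for the whole test. Response was judged visually relative to controls after 13 to 15 greenhouse days, 0 indicating no effect and 100 complete control.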
# pigweed = experiment: Test C preemergence; format: in vivo, Amaranthus retroflexus; conditions: for Pigweed plant response rating: preemergence; for Plant response rating, Pigweed: Preemergence, 31 g ai/ha, scale 0 to 100, 0 no effect, 100 complete control
# Method in brief: as §2
# barnyardgrass [6] = experiment: Test B flooded paddy test; format: in vivo, Echinochloa crus-galli; conditions: Flood, 250 g ai/ha; 0 to 100 scale where 0 is no effect and 100 is complete control
# Method in brief: as §3
# yellow nutsedge = experiment: Test C preemergence; format: in vivo, Cyperus esculentus; conditions: for Nutsedge, Yellow plant response rating: preemergence; for Plant response rating, Nutsedge, Yellow: Preemergence, 31 g ai/ha, scale 0 to 100, 0 no effect, 100 complete control
# Method in brief: as §2
# wheat, winter = experiment: Test C preemergence; format: in vivo, Triticum aestivum; conditions: for Wheat plant response rating: preemergence; for Plant response rating, Wheat: Preemergence, 31 g ai/ha, scale 0 to 100, 0 no effect, 100 complete control
# Method in brief: as §2
# giant foxtail [7] = experiment: Test A postemergence; format: in vivo, Setaria faberii; conditions: 0 to 100 scale where 0 is no effect and 100 is complete control
# Method in brief: as §1
# giant foxtail [8] = experiment: Test C preemergence; format: in vivo, Setaria faberii; conditions: for Foxtail, Giant plant response rating: preemergence; for Plant response rating, Foxtail, Giant: Preemergence, 31 g ai/ha, scale 0 to 100, 0 no effect, 100 complete control
# Method in brief: as §2
# [9] = 31 g ai/ha, scale 0 to 100 (0 no effect, 100 complete control), 13 to 15 days
# [10] = 62 g ai/ha, scale 0 to 100 (0 no effect, 100 complete control)
# [11] = 62 g ai/ha, scale 0 (no effect) to 100 (complete control)
# [12] = 125 g ai/ha, scale 0 (no effect) to 100 (complete control)
# [13] = 250 g ai/ha, scale 0 (no effect) to 100 (complete control)
# [14] = 125 g ai/ha, 0 to 100 scale where 0 is no effect and 100 is complete control
# [15] = 500 g ai/ha, 0 to 100 scale, 0 no effect, 100 complete control
# [16] = 16 g ai/ha, postemergence, visual rating, scale 0 to 100 (0 no effect, 100 complete control), 13 to 15 days
# [17] = 16 g ai/ha, scale 0 to 100 (0 no effect, 100 complete control)
# [18] = 500 g ai/ha, 0 to 100 scale where 0 is no effect and 100 is complete control
structure (smiles),measurement,setting,value
N#Cc1cccc(Oc2ncc(F)cn2)c1-n1cc(Cl)cn1 [Compound 73],"Plant response rating, Velvetleaf",velvetleaf [1]; 125 g ai/ha,100
same,"Plant response rating, Velvetleaf",velvetleaf [1]; 500 g ai/ha,100
same,"Plant response rating (0 to 100), Chickweed","chickweed; 125 g ai/ha, postemergence",50
same,"Plant response rating (0 to 100), Chickweed","chickweed; 250 g ai/ha, postemergence",80
same,"Plant response rating, Chickweed",chickweed; [9],50
same,"Plant response rating, Chickweed",chickweed; [10],50
same,"Plant response rating, Morningglory",morningglory [2]; 125 g ai/ha,90
same,"Plant response rating, Morningglory",morningglory [2]; 500 g ai/ha,100
same,Velvetleaf plant response rating,velvetleaf [3]; [11],75
same,Velvetleaf plant response rating,velvetleaf [3]; [12],100
same,Velvetleaf plant response rating,velvetleaf [3]; [13],100
same,"Plant response rating, Velvetleaf",velvetleaf [3],60
same,"Plant response rating, Barnyardgrass",barnyardgrass [4]; [14],90
same,"Plant response rating, Barnyardgrass",barnyardgrass [4]; [15],90
same,"Plant response rating, Corn",corn; [14],40
same,"Plant response rating, Corn",corn; [15],80
same,"Plant response rating, Crabgrass, Large",large (Lg) crabgrass; [14],90
same,"Plant response rating, Crabgrass, Large",large (Lg) crabgrass; [15],100
same,"Plant response rating (0 to 100), Galium","galium; 125 g ai/ha, postemergence",70
same,"Plant response rating (0 to 100), Galium","galium; 250 g ai/ha, postemergence",70
same,"Plant response rating, Galium",galium; [9],40
same,"Plant response rating, Galium",galium; [10],55
same,"Plant response rating (0 to 100), Morningglory",morningglory [5]; 125 g ai/ha,85
same,"Plant response rating (0 to 100), Morningglory",morningglory [5]; 250 g ai/ha,85
same,"Plant response rating, Morningglory","morningglory [5]; 31 g ai/ha, 13 to 15 days",65
same,"Plant response rating, Morningglory",morningglory [5]; 62 g ai/ha,65
same,"Plant response rating, Ducksalad",Heteranthera limosa,70
same,Pigweed plant response rating,pigweed; [11],100
same,Pigweed plant response rating,pigweed; [12],100
same,Pigweed plant response rating,pigweed; [13],100
same,"Plant response rating, Pigweed",pigweed,100
same,"Plant response rating, Barnyardgrass",barnyardgrass [6],0
same,"Nutsedge, Yellow plant response rating",yellow nutsedge; [11],0
same,"Nutsedge, Yellow plant response rating",yellow nutsedge; [12],5
same,"Nutsedge, Yellow plant response rating",yellow nutsedge; [13],15
same,"Plant response rating, Nutsedge, Yellow",yellow nutsedge,0
same,Wheat plant response rating,"wheat, winter; [11]",0
same,Wheat plant response rating,"wheat, winter; [12]",5
same,Wheat plant response rating,"wheat, winter; [13]",85
same,"Plant response rating, Wheat","wheat, winter",0
same,"Plant response rating, Foxtail, Giant",giant foxtail [7]; 125 g ai/ha,90
same,"Plant response rating, Foxtail, Giant",giant foxtail [7]; 500 g ai/ha,100
same,"Foxtail, Giant plant response rating",giant foxtail [8]; [11],100
same,"Foxtail, Giant plant response rating",giant foxtail [8]; [12],100
same,"Foxtail, Giant plant response rating",giant foxtail [8]; [13],100
same,"Plant response rating, Foxtail, Giant",giant foxtail [8],85
CCOc1cnn(-c2c(C#N)cccc2Oc2ncc(Cl)cn2)c1 [Compound 92],"Plant response rating, Velvetleaf",velvetleaf [1]; 125 g ai/ha,100
same,"Plant response rating, Velvetleaf",velvetleaf [1]; 500 g ai/ha,100
same,Chickweed plant response rating,chickweed; [16],50
same,"Plant response rating (0 to 100), Chickweed","chickweed; 125 g ai/ha, postemergence",70
same,"Plant response rating, Chickweed",chickweed; [9],60
same,"Plant response rating, Chickweed",chickweed; [10],60
same,"Plant response rating, Morningglory",morningglory [2]; 125 g ai/ha,100
same,"Plant response rating, Morningglory",morningglory [2]; 500 g ai/ha,100
same,Velvetleaf plant response rating,velvetleaf [3]; [17],30
same,Velvetleaf plant response rating,velvetleaf [3]; [11],100
same,Velvetleaf plant response rating,velvetleaf [3]; [12],100
same,"Plant response rating, Velvetleaf",velvetleaf [3],90
same,"Plant response rating, Barnyardgrass",barnyardgrass [4]; [14],90
same,"Plant response rating, Barnyardgrass",barnyardgrass [4]; [18],100
same,"Plant response rating, Corn",corn; [14],50
same,"Plant response rating, Corn",corn; [18],80
same,"Plant response rating, Crabgrass, Large",large (Lg) crabgrass; [14],80
same,"Plant response rating, Crabgrass, Large",large (Lg) crabgrass; [18],90
same,Galium plant response rating,galium; [16],70
same,"Plant response rating (0 to 100), Galium","galium; 125 g ai/ha, postemergence",80
same,"Plant response rating, Galium",galium; [9],80
same,"Plant response rating, Galium",galium; [10],65
same,"Plant response rating (0 to 100), Morningglory",morningglory [5]; 125 g ai/ha,85
same,"Plant response rating, Morningglory","morningglory [5]; 31 g ai/ha, 13 to 15 days",85
same,"Plant response rating, Morningglory",morningglory [5]; 62 g ai/ha,90
same,"Plant response rating, Ducksalad",Heteranthera limosa,95
same,Pigweed plant response rating,pigweed; [17],90
same,Pigweed plant response rating,pigweed; [11],100
same,Pigweed plant response rating,pigweed; [12],100
same,"Plant response rating, Pigweed",pigweed,85
same,"Plant response rating, Barnyardgrass",barnyardgrass [6],20
same,"Nutsedge, Yellow plant response rating",yellow nutsedge; [17],5
same,"Nutsedge, Yellow plant response rating",yellow nutsedge; [11],50
same,"Nutsedge, Yellow plant response rating",yellow nutsedge; [12],75
same,"Plant response rating, Nutsedge, Yellow",yellow nutsedge,5
same,Wheat plant response rating,"wheat, winter; [17]",0
same,Wheat plant response rating,"wheat, winter; [11]",30
same,Wheat plant response rating,"wheat, winter; [12]",80
same,"Plant response rating, Wheat","wheat, winter",0
same,"Plant response rating, Foxtail, Giant",giant foxtail [7]; 125 g ai/ha,80
same,"Plant response rating, Foxtail, Giant",giant foxtail [7]; 500 g ai/ha,90
same,"Foxtail, Giant plant response rating",giant foxtail [8]; [17],30
same,"Foxtail, Giant plant response rating",giant foxtail [8]; [11],100
same,"Foxtail, Giant plant response rating",giant foxtail [8]; [12],100
same,"Plant response rating, Foxtail, Giant",giant foxtail [8],98
